Laboratory results from article PMC11550998, “Novel 5-HT7 receptor antagonists modulate intestinal immune responses and reduce severity of colitis” (American Journal of Physiology - Gastrointestinal and Liver …, 2024).
Each block holds one compound with its values, some of them ahead of it.

How the values were obtained:
[1] = Mouse in vivo pharmacokinetic studies; design: species or system C57BL/6 male mice
Description: Adult C57BL/6 male mice (2–4 mo old, body weight ranging from 20 to 25 g, Charles River Laboratories) were maintained under controlled temperature (23 ± 1°C) and lighting (lights on 6:00 AM–6:00 PM) with food and water provided ad libitum. Pharmacokinetic studies were performed either via intravenous bolus infusion or through oral gavage. Mice were administered each compound intravenously by tail vein injection (1 mg/kg) or orally through gavage (5 mg/kg). Serial blood samples were collected at 5, 15, and 30 min and 1, 2, 4, 8, and 24 h after intravenous administration, and at 15, 30 min, and 1, 2, 4, 8, and 24 h after oral gavage administration. All blood samples were centrifuged at 1,500 g for 5 min. Pharmacokinetic study procedures were approved by Temple University’s Institutional Animal Care and Usage Committee and were in accordance with National Institutes of Health (NIH) guidelines. For all in vivo efficacy studies, experiments were approved by the animal ethics committee of McMaster University and conducted under Canadian guidelines for animal research.
Plasma concentrations were determined using an LC-MS/MS method. Briefly, 100-µL acetonitrile with an internal standard solution (Diltiazem, 0.1 μg/mL) was added to 50-µL plasma or tissue homogenate. After being vortexed for 1 min, the mixture was centrifuged at 3,000 g for 5 min. LC-MS/MS analysis was carried out using a high-performance liquid chromatography system consisting of an Agilent 1100 system interfaced to an API4000 SCIEX triple-quadrupole tandem mass spectrometer (Applied Biosystems/MDS Sciex, Foster City, CA). MC-170073, MC-230078, MC-230079, and the internal standard were separated by using a Phenomenex (Torrance, CA) C18 column (2.0 × 50 mm). The mobile phase consisted of solvent A (0.1% formic acid in water) and solvent B (0.1% formic acid in acetonitrile). A linear gradient of solvent B from 5 to 95% was used. The detection and quantification of analytes were performed with the m/z transition 347/191 for MC-170073, MC-230078, and MC-230079, and m/z 415/178 for diltiazem.

[2] = tested on: DSS-induced colitis; design: method as in PMID 23554310; conditions: acute DSS-induced colitis, vs controls; cited from earlier work
[3] = tested on: 2,4,6-trinitrobenzenesulfonic acid (TNBS)-induced colitis; design: method as in PMID 23554310, PMID 27047383; conditions: cited from earlier work
[4] = tested on: DSS exposure at 4% wt/vol; design: method as in PMID 25072499; conditions: DSS 4% wt/vol; untreated animals 33%; cited from earlier work
[5] = tested on: naive CD4+ T cells expressing 5-HT7 receptors; design: method as in PMID 17158224; conditions: ex vivo; cited from earlier work
[6] = tested on: colitis induced by DSS and TNBS; conditions: 5-HT4 receptor agonist; cited from earlier work
[7] = male, C57BL/6, plasma, IV, 1 mg/kg
[8] = male, C57BL/6, plasma, oral gavage, 5 mg/kg

bioavailability ([1]; male, C57BL/6, mouse, plasma, oral, 5 mg/kg, 5 mg/kg oral vs 1 mg/kg IV, read-out: %F (oral bioavailability)): 10.8%
AUC [1, 7]: 97 ng·h/mL
Cmax [1, 7]: 148 ng/mL
Tmax [1, 7]: 10 min
clearance [1, 7]: 4.2 mL/min
half-life [1, 7]: 20.1 min
AUC [1, 8]: 52.5 ng·h/mL
Cmax [1, 8]: 57 ng/mL
Tmax [1, 8]: 30 min
half-life [1, 8]: 34.9 min
CL ([1]; oral gavage, 5 mg/kg): 2.07 L/h
Compound: CCC1(CC)C[C@H](CCN2CCN(c3ccc(O)cc3)CC2)OC1=O [MC-230079]

Compound: CC1CCN(CC[C@H]2CCCN2S(=O)(=O)c2cccc(O)c2)CC1 [SB-269970, (R)-3-(2-(2-(4-methylpiperidin-1-yl)-ethyl)pyrrolidine-1-sulfonyl)phenol]
severity of colitis and production of proinflammatory cytokines [2]: significantly reduced
effect on TNBS-induced colitis [3]: only a minor impact
mortality rate [4]: > 60%
rapid T cell responses upon 5-HT exposure [5]: abrogated

Compound: [H]/N=C(/NCCCCC)N/N=C/c1c[nH]c2ccc(OC)cc12 [tegaserod]
effect on development of colitis [6]: protective actions
